{
  "source": "patent US20050100888A1",
  "about": "“Methods based on hormone dependency of primary cancer cells” (Imperial College Innovations Limited, priority 2002, published 2005)",
  "key": {"estrogen receptor (ER) [1]": {"molecular_target": "T1, estrogen receptor (ER) (Homo sapiens, UniProt P03372)", "T1 sequence (P03372 1-595)": "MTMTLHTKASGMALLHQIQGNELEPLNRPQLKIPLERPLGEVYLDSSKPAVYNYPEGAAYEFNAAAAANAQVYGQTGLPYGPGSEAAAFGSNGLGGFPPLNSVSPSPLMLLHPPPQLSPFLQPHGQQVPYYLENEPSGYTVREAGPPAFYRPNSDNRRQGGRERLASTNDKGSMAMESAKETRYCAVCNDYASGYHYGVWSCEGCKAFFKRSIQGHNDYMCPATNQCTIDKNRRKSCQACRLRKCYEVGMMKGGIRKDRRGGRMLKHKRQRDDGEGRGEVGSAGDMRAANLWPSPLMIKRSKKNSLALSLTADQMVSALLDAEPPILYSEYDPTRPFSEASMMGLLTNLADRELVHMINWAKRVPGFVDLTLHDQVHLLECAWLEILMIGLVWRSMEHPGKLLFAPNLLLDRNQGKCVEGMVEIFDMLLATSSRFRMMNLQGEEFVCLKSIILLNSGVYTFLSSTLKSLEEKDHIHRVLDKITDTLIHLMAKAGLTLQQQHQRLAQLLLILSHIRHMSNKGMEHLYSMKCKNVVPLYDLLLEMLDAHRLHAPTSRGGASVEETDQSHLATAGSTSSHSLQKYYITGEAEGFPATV", "conditions": "ER positive cell lines (MCF-7, T47-D, ZR75-1, BT474), virus 100:1, ligands 10^−7M", "protocol": "(§1) Reporter Gene Assay 48 hours after virus infection, 20 ul of 20% Triton in PBS was added to each well and incubated at RT for 10 minutes. […] (CRPG) made up in TBS at a concentration of 8 mg/ml was then added to the wells and the plate was incubated, foil-wrapped, at 37° C. until a colour change was observed. Plate readings were taken at a wavelength of 547 nm."}, "estrogen receptor (ER) [2]": {"molecular_target": "T1, estrogen receptor (ER)", "conditions": "infected MCF7 cells"}, "estrogen receptor (ER) [3]": {"tested_on": "estrogen receptor (ER)", "experiment": "adenoERreporter assay in fine needle aspirates (FNA) from recurrent breast cancer", "type": "cell-based, human", "protocol": "Cells obtained from FNAs were collected in PBS (Sigma, Poole, UK) containing 2% FCS. If the aspirate was bloody, erythrocyte lysis buffer (0.155M NH4Cl, 10 mM KHCO3, 0.1 mM EDTA, pH 7.4) was used to lyse the red blood cells and after a further wash with PBS, the cells were re-suspended in culture media for counting and immediate infections.\nFor infections of primary cells, 6-10,000 cells/well were allowed and exposed to the given quantity of virus, after which they were pelleted and re-supended in 200 ul of PR free/5% DSS medium containing the appropriate ligands prior to plating into 96-well plates.\nas §1\nWe purified breast cancer cells from metastatic fluid, both pleural and ascites as well as fine needle aspirates (FNA) from recurrent breast cancer. These cells were counted and infected with adenoERreporter and after 48 hours a β-gal assay was performed. We have infected 9 metastatic effusions including 2 cell lines of passage number two, derived from pleural effusions and 4 FNAs. Tables 3 and 4 show the treatment history and characteristics of the patients that provided the samples. Where possible, some of the fluid was sent for cytology and ER staining. However, this was not always feasible due to the variability of cancer cells in the metastatic fluid."}},
  "data": [
    {"smiles": "C[C@]12CC[C@@H]3c4ccc(O)cc4C[C@@H](CCCCCCCCC[S+]([O-])CCCC(F)(F)C(F)(F)F)[C@H]3[C@@H]1CC[C@@H]2O", "note": "(stereo partly shown) [ICI 182,780]", "values": [
      {"measurement": "reporter activity above baseline", "setting": "estrogen receptor (ER) [1]", "value": "blocked even the baseline activity"},
      {"measurement": "β-gal expression by X-gal staining", "setting": "estrogen receptor (ER) [2]", "value": "completely abolished even basal levels of staining"},
      {"measurement": "Reporter Assay: inhibition", "setting": "estrogen receptor (ER) [3]; FNA summary table, N = 1, IHC ER−/PR−, ?Responder", "value": "OHT/ICI inhibit by × 1.8"},
      {"measurement": "Reporter Activity", "setting": "estrogen receptor (ER) [3]; Table 4 patient 8) T2GN0M0, primary ER++/PR−, FNA ER−/PR−, prior Arimidex 1y", "value": "x1.0"}
    ]}
  ]
}
